Five compounds from patent publication US7601511B2, “Biotin-facilitated transport in gram negative bacteria” (priority 2003, dated 2009) can be followed below.

The test system of one experiment is E. coli MG1655. Put plainly: Effect of added compounds on uptake of biotinylated peptide (competition / block). It is filed as cell-based, Escherichia coli. To be noted: 31 amino acid peptide, sampled after 10 minutes. Here is the method: (§1) Uptake assays. Minimal 37° C. overnights were diluted into fresh minimal media and incubated at 37° C. until they reached an OD550 of 0.5. The 10 and 31 amino acid randomized biotinylated peptides were added to the media at a concentration of 1 μg per mL of culture. After addition of the peptide to the culture, 1 mL aliquots were extracted at time intervals up to an hour, washed twice of extracellular peptide using fresh minimal media, then boiled with SDS-PAGE gradient sample buffer. Samples were run on a 10-16% tricine gradient gel (Schägger et al., 1987, Anal. Biochem. 166:368-379) and transferred to nitrocellulose membranes. The resulting Western blots were treated with NeutrAvidin Horseradish Peroxidase Conjugate and SuperSignal West Dura Extended Duration Chemiluminescent Substrate. The membranes were incubated for 5-10 minutes then exposed to X-ray film for 1-10 minutes. Bands on the film were quantified using the AlphaEase 5.5 Densitometry ProGram from Alpha Innotech.
(§2) One mL samples were extracted 10 minutes after the addition of the peptide and analyzed by SDS PAGE as previously described.

The subject of the next experiment is S. aureus. Put plainly: Effect of added biotin on uptake of biotinylated peptide (competition). To be noted: 31 amino acid peptide; equimolar or 10× equimolar amounts, added five minutes before peptide. It is filed as cell-based, Staphylococcus aureus. Here is the method: as §1, §2
Where [1] appears, read: equimolar or 10× equimolar amounts, added five minutes before peptide.

“avidin: protein known to tightly bind biotin, purchased from Sigma”: the “effect on uptake of biotinylated peptide in E. coli” value (“effect on uptake … in E. coli” for short) with E. coli MG1655 (setting [1]) was “could competitively inhibit”.
As for `O=C(O)CCCC[C@@H]1SC[C@@H]2NC(=O)N[C@@H]21` [biotin], the “effect on uptake … in E. coli” value with E. coli MG1655 (setting [1]) is listed as “could be blocked”. The “effect on uptake of biotinylated peptide in S. aureus” value in the experiment with S. aureus is “no effect”.
Consider `N#CC(C#N)=NNc1cccc(Cl)c1` [CCCP, carbonyl cyanide m-chlorophenylhydrazone], for which the “effect on uptake … in E. coli” value in the experiment with E. coli MG1655 (CCCP 50 μM added prior to peptide) is listed as “uptake is blocked”.
Consider “bovine serum albumin: similarly sized protein used as control”, for which, in the experiment on E. coli MG1655 (setting [1]), the “effect on uptake … in E. coli” value was “no effect”.
Turning to `Cc1ncc(C[n+]2csc(CCO)c2C)c(N)n1` [thiamine], in the experiment on E. coli MG1655 (setting [1]), the “effect on uptake … in E. coli” value is recorded as “no effect”.
